Earlier results on 1 molecule are cited in patent US10053407B2, “Crystalline cannabidivarin” (S&B Pharma, Inc., priority 2016, dated 2018).

The structures appear in SMILES notation.

The subject of this data set is epilepsy. To be noted: animal studies; 50 and 100 mg/kg, delivered intra-peritoneally; cannabidivarin prepared by non-synthetic methods.

Regarding `C=C(C)[C@@H]1CCC(C)=C[C@H]1c1c(O)cc(CCC)cc1O` [cannabidivarin], the mortality entry is “effective in reducing mortality”.
